According to patent US6613734B2, “Peptides-containing liposomal surfactants” (The Scripps Research Institute, priority 1988, dated 2003):
Several values for one entry are separate records, joined by “and”; a condition that tells them apart may be missing. Equal entries are not always repeated. Marks after values point to notes of the source that are not given here.

Tests used:
[1] = pulsating bubble technique ("bubble assay" of Enhorning, Enhorning Surfactometer); type: physicochemical; settings: peptide 10% by weight of PL, 37° C., negative pressure, mean of 3; for Pressure Gradient 15″: 15 seconds; for Pressure Gradient 1′: 1 minute; for Pressure Gradient 5′: 5 minutes
Description: Measurements of surface pressure across an air-liquid interface (expressed in negative cm of H2O pressure) at minimal (γmin) bubble radius were determined at various times using the pulsating bubble technique described by Enhorning, J. Appl. Physiol. 43: 198-203 (1977).
Briefly, the Enhorning Surfactometer (Surfactometer International, Toronto, Ontario) measures the pressure gradient (ΔP) across a liquid-air interface of a bubble that pulsates at a rate of 20 cycles/min between a maximal (0.55 mm) and minimal (0.4 mm) radius. The bubble, formed in a 37° C., water-enclosed, 20-μl sample chamber, is monitored through a microscopic optic while the pressure changes are recorded on a strip chart recorder calibrated for 0 and −2 cm H2O.
Each of the surfactants identified in Table 5 was assayed for surfactant activity as evidenced by their ability to reduce surface tension in vitro using the “bubble assay” of Enhorning as described above.
After admixture with solvent, each peptide was admixed with phospholipids (PL), DPPC:PG, 3:1, in chloroform in a glass tube so that the amount of polypeptide added equaled one-tenth (10% by. weight) of the amount of PL added, to form a surfactant according to either method A, B or C.
Each of the surfactants was then assayed for surfactant activity as evidenced by their ability to reduce surface tension in vitro in the bubble assay performed as described above. The pressure gradient (ΔP) is a measure of surfactant activity in the polypeptide-PL third admixture which was determined using an Enhorning Surfactometer as described above. Measurements were obtained at time points of 15 seconds (15″), 1 minute (1′) and 5 minutes (5′) and are expressed as a mean of three independent measurements of the indicated polypeptide-PL admixture.

fetal rabbit lung [2] = assay: dynamic compliance, fetal rabbit model; type: in vivo; settings: single animal per line
Description: A subject polypeptide was first admixed with solvent as described in Example 3. […]
Surfactant was instilled in rabbit fetal lung by injection into the trachea from a single syringe of the following three components such that the components exit the syringe in the following order: (1) 0.05 ml air; (2) 0.1 ml of a synthetic surfactant prepared in Example 4A or either 2 mg of PL or 2 mg of native surfactant; and (3) 0.1 ml air.
From one syringe, a 0.1 ml aliquot of synthetic surfactant prepared as described in Example 4A (or 2 mg of NS or of PL), was instilled into the rabbit trachea as described above, followed by injection of 0.05 ml lactated Ringer's Solution and 0.2 ml air from a second syringe.
From one syringe, 0.1 ml of a synthetic surfactant prepared as described in Example 4A (or 2 mg of NS or of PL), 0.15 ml air, 0.1 ml saline, and 0.3 ml air were injected into the trachea as described above. Two subsequent aliquots of 0.3 ml air were given.
The surfactant activity of exemplary polypeptides of this invention was studied using the methods described in detail previously by Revak, et al, Am. Rev. Respir. Dis. 134: […] (1986), with the exceptions noted hereinbelow.
Twenty-seven day gestation fetal rabbits were delivered by hysterotomy and immediately injected with 0.05 ml Norcuron (Organon, Inc., N.J.) to prevent spontaneous breathing. The fetal rabbits were then weighed and a small cannula was inserted into the trachea by tracheotomy surfactant prepared as described above was then instilled into the fetal rabbit lung by one of the above instillation protocols.
Following instillation the rabbit was placed in a specially designed plethysmograph (containing a Celesco transducer) connected to a ventilator (Baby Bird, Baby Bird Corp., Palm Springs, Calif.) and the instilled lung was ventilated at a rate of 30 cycles per minute with a peak inspiratory pressure of 25 cm H2O, a positive end expiratory pressure of 4 cm H2O and an inspiratory time of 0.5 seconds. In some studies, dynamic compliance measurements were made at various times throughout the ventilation procedure. In others, static compliance measurements were made following ventilation.
Using the plethysmograph, dynamic compliance measurements were made at various times throughout a 60 minute ventilation period. […] Compliance was calculated by the formula below. [formula]
The above equation was solved with a multiple linear regression for C and R. The compliance (C) represents the elastic nature of the lungs and the resistance (R) represents the pressure necessary to overcome the resistance to the flow of gas into and out of the lungs.

[3] = observation whether peptide/solvent admixture formed a solution or a suspension; type: physicochemical
Description: Each polypeptide was admixed with the indicated solvent at a concentration of 2.5 mg of polypeptide per ml of solvent. […] Those admixtures forming a suspension were further admixed by water bath sonication for 10 seconds to form a very fine suspension, sufficient for pipetting using glass pipettes.

fetal rabbit lung [4] = assay: static compliance, fetal rabbit model; type: in vivo; settings: fetal rabbits, after 30 minutes of ventilation, instillation protocols 1 and 5 (FIGS. 2 and 3)
Description: A subject polypeptide was first admixed with solvent as described in Example 3. The resulting admixture was further admixed with phospholipid (PL) so that the amount of polypeptide added was either 3%, 7% or 10% by weight of the amount of PL added as indicated below.
Fetal rabbits were treated by injection into the trachea of a 0.1 ml solution that contained either a synthetic surfactant prepared in Example 4A or either 2 mg of native surfactant prepared as described in Example 1 of U.S. Pat. No. 5,260,273 (incorporated by reference herein) or 2 mg PL.
Fetal rabbits were treated by injection into the trachea from a single syringe the following four components such that the four components exit the syringe upon injection in the order listed: (1) 0.2 ml solution that contains either a synthetic surfactant prepared in Example 4A or either 4 mg of native surfactant, or 4 mg PL; (2) a 0.15 ml volume of air; (3) a 0.1 ml normal saline solution; and (4) a 0.3 ml volume of air. The above injection was then repeated 15 minutes after the first injection. […]
Static compliance measurements were made after 30 minutes of ventilation. […] The volume of air required to reach static pressures of 5, 10, 15, 20, 25 and 30 cm H2O was measured during both inflation and deflation phases to generate static pressure to volume curves as a measure of static compliance.

Row | Sequence | Pressure Gradient 15″ ([1]; PL (DPPC:PG 3:1) 10 mg/ml) | Pressure Gradient 1′ ([1]; PL (DPPC:PG 3:1) 10 mg/ml) | Pressure Gradient 5′ ([1]; PL (DPPC:PG 3:1) 10 mg/ml) | Dynamic Compliance, 10 minutes after surfactant instillation (fetal rabbit lung [2]; 10% peptide to PL, Protocol 4) | Dynamic Compliance, 20 minutes after surfactant instillation (fetal rabbit lung [2]; 10% peptide to PL, Protocol 4) | Dynamic Compliance, 30 minutes after surfactant instillation (fetal rabbit lung [2]; 10% peptide to PL, Protocol 4) | Dynamic Compliance, 40 minutes after surfactant instillation (fetal rabbit lung [2]; 10% peptide to PL, Protocol 4) | Dynamic Compliance, 50 minutes after surfactant instillation (fetal rabbit lung [2]; 10% peptide to PL, Protocol 4) | Dynamic Compliance, 60 minutes after surfactant instillation (fetal rabbit lung [2]; 10% peptide to PL, Protocol 4) | other results
1 | ERYSVILLDTLLGRMLPQLVCRLVLR [p51-76] | 0.99 cm of H2O | 0.91 cm of H2O | 0.42 cm of H2O | 33 ml air/cm H2O (g body weight × 10^6) and 10 ml air/cm H2O (g body weight × 10^6) and 15 ml air/cm H2O (g body weight × 10^6) | 22 ml air/cm H2O (g body weight × 10^6) and 11 ml air/cm H2O (g body weight × 10^6) and 36 ml air/cm H2O (g body weight × 10^6) | 56 ml air/cm H2O (g body weight × 10^6) and 186 ml air/cm H2O (g body weight × 10^6) and 109 ml air/cm H2O (g body weight × 10^6) | 87 ml air/cm H2O (g body weight × 10^6) and 358 ml air/cm H2O (g body weight × 10^6) and 241 ml air/cm H2O (g body weight × 10^6) | 124 ml air/cm H2O (g body weight × 10^6) and 141 ml air/cm H2O (g body weight × 10^6) and 264 ml air/cm H2O (g body weight × 10^6) | 85 ml air/cm H2O (g body weight × 10^6) and 144* ml air/cm H2O (g body weight × 10^6) and 301 ml air/cm H2O (g body weight × 10^6) | Admixture Formed ([3]; 2.5 mg of polypeptide per ml of solvent, solvent 37% chloroform 63% methanol): solution
2 | RVVPLVAGGICQCLAERYSVILLDTLLGRMLPQLVCRLVLRCSMDD [p36-81] | 0.90 cm of H2O | 0.87 cm of H2O | 0.79 cm of H2O |  |  |  |  |  |  | Dynamic Compliance, 30 minutes after surfactant instillation (fetal rabbit lung [2]; 5% peptide to PL, Protocol 3): 255 ml air/cm H2O (g body weight × 10^6) and 245 ml air/cm H2O (g body weight × 10^6); Dynamic Compliance, 60 minutes after surfactant instillation (fetal rabbit lung [2]; 5% peptide to PL, Protocol 3): 146* ml air/cm H2O (g body weight × 10^6) and 291 ml air/cm H2O (g body weight × 10^6); Dynamic Compliance, 30 minutes after surfactant instillation (fetal rabbit lung [2]; 10% peptide to PL, Protocol 2): 154 ml air/cm H2O (g body weight × 10^6) and 252 ml air/cm H2O (g body weight × 10^6); Dynamic Compliance, 60 minutes after surfactant instillation (fetal rabbit lung [2]; 10% peptide to PL, Protocol 2): 1,162 ml air/cm H2O (g body weight × 10^6) and 623 ml air/cm H2O (g body weight × 10^6); Admixture Formed ([3]; 2.5 mg of polypeptide per ml of solvent, solvent 50% chloroform 0% methanol): suspension
3 | FPIPLPYCWLCRALI [p1-15] |  |  |  |  |  |  |  |  |  | Pressure Gradient 15″ ([1]; PL (DPPC:PG 3:1) 4 mg/ml): 0.94 cm of H2O; Pressure Gradient 1′ ([1]; PL (DPPC:PG 3:1) 4 mg/ml): 0.82 cm of H2O; Pressure Gradient 5′ ([1]; PL (DPPC:PG 3:1) 4 mg/ml): 0.48 cm of H2O; lung compliance measured by static compliance, compared with PL alone (fetal rabbit lung [4]): did not produce improved lung compliance over PL alone; Admixture Formed ([3]; 2.5 μg of peptide per μl of solvent, solvent n-propyl alcohol): suspension; Admixture Formed ([3]; 2.5 mg of polypeptide per ml of solvent, solvent N-propanol): suspension
4 | ERYSVILLDTLLGRMLPQLVCRLVLRCSMD [p51-80] | 0.92 cm of H2O | 0.89 cm of H2O | 0.48 cm of H2O | 17 ml air/cm H2O (g body weight × 10^6) and 76 ml air/cm H2O (g body weight × 10^6) and 23 ml air/cm H2O (g body weight × 10^6) | 41 ml air/cm H2O (g body weight × 10^6) and 94 ml air/cm H2O (g body weight × 10^6) and 71 ml air/cm H2O (g body weight × 10^6) | 52 ml air/cm H2O (g body weight × 10^6) and 149 ml air/cm H2O (g body weight × 10^6) and 130 ml air/cm H2O (g body weight × 10^6) | 78 ml air/cm H2O (g body weight × 10^6) and 149 ml air/cm H2O (g body weight × 10^6) and 156 ml air/cm H2O (g body weight × 10^6) | 99 ml air/cm H2O (g body weight × 10^6) and 217 ml air/cm H2O (g body weight × 10^6) and 182 ml air/cm H2O (g body weight × 10^6) | 208 ml air/cm H2O (g body weight × 10^6) and 308 ml air/cm H2O (g body weight × 10^6) and 109* ml air/cm H2O (g body weight × 10^6) | Admixture Formed ([3]; 2.5 mg of polypeptide per ml of solvent, solvent 45% chloroform 55% methanol): solution
